Experimental data reported in ChEMBL document CHEMBL1153558, “In vitro antifungal susceptibilities of five species of sporothrix” (2008).
≈ marks a conversion by molar mass, not a printed value. Numbered stars: 1 amine (or outer) side, 2 acyl side, 3 side chain; on linkers, the order of the positions; unused ones are H or OH. Bridge positions count the residues as written; N and C are the ends. Square brackets hold non-standard residues; d marks the D form. Peptide text beside a SMILES is read from it. * marks the point of attachment. hTyr(3S-OH,4S-OH,3'-OSO3H) = N[C@H](C(=O)O)[C@H](O)[C@@H](O)c1ccc(O)c(OS(=O)(=O)O)c1; Orn(4R-OH,5R-OH) = O=C([C@H](C[C@@H](O)[C@@H](O)N[*:3])N[*:1])[*:2]; Pro(3S-OH,4S-Me) = C[C@H]1CN[C@H](C(=O)O)[C@H]1O; X1 = CCCCCOc1ccc(-c2cc(-c3ccc(C(=O)*)cc3)no2)cc1; Gln(3R-OH) = NC(=O)C[C@@H](O)[C@H](N)C(=O)O; Hyp = O=C(O)[C@@H]1C[C@@H](O)CN1

What was measured:
Assay type in all cases: functional
Sporothrix [1] = experiment: Antifungal activity against Sporothrix brasiliensis after 72 hrs by microdilution method
Sporothrix [2] = experiment: Antifungal activity against Sporothrix mexicana after 72 hrs by microdilution method
Sporothrix schenckii = experiment: Antifungal activity against Sporothrix schenckii after 72 hrs by microdilution method
Sporothrix globosa = experiment: Antifungal activity against Sporothrix globosa after 72 hrs by microdilution method
Sporothrix albicans = experiment: Antifungal activity against Sporothrix albicans after 72 hrs by microdilution method

Row | SMILES | MIC (Sporothrix [1]) | MIC50 (Sporothrix [1]) | MIC90 (Sporothrix [1]) | MIC (Sporothrix [2]) | MIC50 (Sporothrix schenckii) | MIC90 (Sporothrix schenckii) | MIC50 (Sporothrix globosa) | MIC90 (Sporothrix globosa) | MIC50 (Sporothrix albicans) | MIC90 (Sporothrix albicans) | MIC (Sporothrix albicans) | MIC (Sporothrix schenckii) | MIC (Sporothrix globosa)
1 | CN(C/C=C/C#CC(C)(C)C)Cc1cccc2ccccc12 [TERBINAFINE] | 0.06 µg/mL (≈ 0.206 µM) | 0.06 µg/mL (≈ 0.206 µM) | 0.25 µg/mL (≈ 0.858 µM) | 0.5 µg/mL (≈ 1.72 µM) | 0.25 µg/mL (≈ 0.858 µM) | 0.5 µg/mL (≈ 1.72 µM) | 0.25 µg/mL (≈ 0.858 µM) | 0.5 µg/mL (≈ 1.72 µM) | 0.5 µg/mL (≈ 1.72 µM) | 4 µg/mL (≈ 13.7 µM) |  |  | 
2 | C[C@@H](c1nc(-c2ccc(C#N)cc2)cs1)[C@](O)(Cn1cncn1)c1ccc(F)cc1F [RAVUCONAZOLE] |  | 0.5 µg/mL (≈ 1.14 µM) | 1 µg/mL (≈ 2.29 µM) | 32 µg/mL (≈ 73.1 µM) | 8 µg/mL (≈ 18.3 µM) | 16 µg/mL (≈ 36.6 µM) | 8 µg/mL (≈ 18.3 µM) | 16 µg/mL (≈ 36.6 µM) | 16 µg/mL (≈ 36.6 µM) | 32 µg/mL (≈ 73.1 µM) |  |  | 
3 | Clc1cc(Cl)c2c(c1)CCc1ccccc1C2n1ccnc1 (stereo not given) [EBERCONAZOLE] |  | 0.25 µg/mL (≈ 0.759 µM) | 1 µg/mL (≈ 3.04 µM) | 32 µg/mL (≈ 97.2 µM) | 2 µg/mL (≈ 6.07 µM) | 8 µg/mL (≈ 24.3 µM) | 2 µg/mL (≈ 6.07 µM) | 4 µg/mL (≈ 12.1 µM) | 8 µg/mL (≈ 24.3 µM) | 16 µg/mL (≈ 48.6 µM) |  |  | 
4 | Nc1nc(=O)[nH]cc1F [FLUCYTOSINE] |  | 16 µg/mL (≈ 124 µM) | 128 µg/mL (≈ 992 µM) | 128 µg/mL (≈ 992 µM) | 16 µg/mL (≈ 124 µM) | 128 µg/mL (≈ 992 µM) | 64 µg/mL (≈ 496 µM) | 128 µg/mL (≈ 992 µM) | 128 µg/mL (≈ 992 µM) | 128 µg/mL (≈ 992 µM) | 128 µg/mL (≈ 992 µM) |  | 
5 | CC(=O)N1CCN(c2ccc(OCC3COC(Cn4ccnc4)(c4ccc(Cl)cc4Cl)O3)cc2)CC1 (stereo not given) [KETOCONAZOLE] |  | 0.125 µg/mL (≈ 0.235 µM) | 0.25 µg/mL (≈ 0.47 µM) | 4 µg/mL (≈ 7.53 µM) | 1 µg/mL (≈ 1.88 µM) | 2 µg/mL (≈ 3.76 µM) | 1 µg/mL (≈ 1.88 µM) | 2 µg/mL (≈ 3.76 µM) | 4 µg/mL (≈ 7.53 µM) | 4 µg/mL (≈ 7.53 µM) |  |  | 
6 | CCCCCOc1ccc(-c2cc(-c3ccc(C(=O)N[C@H]4C[C@@H](O)[C@@H](O)NC(=O)[C@@H]5[C@@H](O)[C@@H](C)CN5C(=O)[C@H]([C@H](O)CC(N)=O)NC(=O)[C@H]([C@H](O)[C@@H](O)c5ccc(O)c(OS(=O)(=O)O)c5)NC(=O)[C@@H]5C[C@@H](O)CN5C(=O)[C@H]([C@@H](C)O)NC4=O)cc3)no2)cc1 [MICAFUNGIN] (X1-[Orn(4R-OH,5R-OH)]T[Hyp][hTyr(3S-OH,4S-OH,3'-OSO3H)][Gln(3R-OH)][Pro(3S-OH,4S-Me)]; lactam 1-C) | 256 µg/mL (≈ 202 µM) | 256 µg/mL (≈ 202 µM) | 256 µg/mL (≈ 202 µM) | 256 µg/mL (≈ 202 µM) | 256 µg/mL (≈ 202 µM) | 256 µg/mL (≈ 202 µM) | 256 µg/mL (≈ 202 µM) | 256 µg/mL (≈ 202 µM) | 256 µg/mL (≈ 202 µM) | 256 µg/mL (≈ 202 µM) | 256 µg/mL (≈ 202 µM) | 256 µg/mL (≈ 202 µM) | 256 µg/mL (≈ 202 µM)
7 | CC[C@@H]([C@H](C)O)n1ncn(-c2ccc(N3CCN(c4ccc(OC[C@@H]5CO[C@@](Cn6cncn6)(c6ccc(F)cc6F)C5)cc4)CC3)cc2)c1=O [POSACONAZOLE] |  | 0.5 µg/mL (≈ 0.713 µM) | 1 µg/mL (≈ 1.43 µM) | 32 µg/mL (≈ 45.7 µM) | 1 µg/mL (≈ 1.43 µM) | 8 µg/mL (≈ 11.4 µM) | 2 µg/mL (≈ 2.85 µM) | 8 µg/mL (≈ 11.4 µM) | 2 µg/mL (≈ 2.85 µM) | 2 µg/mL (≈ 2.85 µM) |  |  | 
8 | OC(Cn1cncn1)(Cn1cncn1)c1ccc(F)cc1F [FLUCONAZOLE] | 128 µg/mL (≈ 418 µM) | 128 µg/mL (≈ 418 µM) | 128 µg/mL (≈ 418 µM) | 128 µg/mL (≈ 418 µM) | 128 µg/mL (≈ 418 µM) | 128 µg/mL (≈ 418 µM) | 128 µg/mL (≈ 418 µM) | 128 µg/mL (≈ 418 µM) | 128 µg/mL (≈ 418 µM) | 128 µg/mL (≈ 418 µM) | 128 µg/mL (≈ 418 µM) | 128 µg/mL (≈ 418 µM) | 128 µg/mL (≈ 418 µM)
9 | C[C@@H]1[C@H](O)[C@@H](C)/C=C/C=C/C=C/C=C/C=C/C=C/C=C/[C@H](O[C@@H]2O[C@H](C)[C@@H](O)[C@H](N)[C@@H]2O)C[C@@H]2O[C@](O)(C[C@@H](O)C[C@@H](O)[C@H](O)CC[C@@H](O)C[C@@H](O)CC(=O)O[C@H]1C)C[C@H](O)[C@H]2C(=O)O [AMPHOTERICIN B] |  | 2 µg/mL (≈ 2.16 µM) | 4 µg/mL (≈ 4.33 µM) | 16 µg/mL (≈ 17.3 µM) | 4 µg/mL (≈ 4.33 µM) | 4 µg/mL (≈ 4.33 µM) | 4 µg/mL (≈ 4.33 µM) | 8 µg/mL (≈ 8.66 µM) | 4 µg/mL (≈ 4.33 µM) | 8 µg/mL (≈ 8.66 µM) |  |  | 
10 | CCC(C)n1ncn(-c2ccc(N3CCN(c4ccc(OCC5COC(Cn6cncn6)(c6ccc(Cl)cc6Cl)O5)cc4)CC3)cc2)c1=O (stereo not given) [ITRACONAZOLE] | 0.5 µg/mL (≈ 0.709 µM) | 0.5 µg/mL (≈ 0.709 µM) | 1 µg/mL (≈ 1.42 µM) | 32 µg/mL (≈ 45.3 µM) | 4 µg/mL (≈ 5.67 µM) | 32 µg/mL (≈ 45.3 µM) | 32 µg/mL (≈ 45.3 µM) | 32 µg/mL (≈ 45.3 µM) | 32 µg/mL (≈ 45.3 µM) | 32 µg/mL (≈ 45.3 µM) | 32 µg/mL (≈ 45.3 µM) |  | 
11 | C[C@@H](n1cnc2cc(Cl)ccc2c1=O)[C@](O)(Cn1cncn1)c1ccc(F)cc1F [ALBACONAZOLE] |  | 1 µg/mL (≈ 2.32 µM) | 4 µg/mL (≈ 9.26 µM) | 32 µg/mL (≈ 74.1 µM) | 16 µg/mL (≈ 37.1 µM) | 32 µg/mL (≈ 74.1 µM) | 16 µg/mL (≈ 37.1 µM) | 16 µg/mL (≈ 37.1 µM) | 16 µg/mL (≈ 37.1 µM) | 32 µg/mL (≈ 74.1 µM) |  |  | 
12 | C[C@@H](c1ncncc1F)[C@](O)(Cn1cncn1)c1ccc(F)cc1F [VORICONAZOLE] |  | 4 µg/mL (≈ 11.5 µM) | 8 µg/mL (≈ 22.9 µM) | 16 µg/mL (≈ 45.8 µM) | 32 µg/mL (≈ 91.6 µM) | 32 µg/mL (≈ 91.6 µM) | 32 µg/mL (≈ 91.6 µM) | 32 µg/mL (≈ 91.6 µM) | 8 µg/mL (≈ 22.9 µM) | 32 µg/mL (≈ 91.6 µM) |  |  | 
